The record followed here is patent publication US20080026067A1, “Method for Increasing Specific Surface Area of Slightly Soluble Drug” (priority 2004, published 2008).

Common to all, as to assay type: physicochemical
Data set [1] can be described thus: Measurement of tap density. The note with it: tapped 3 minutes at 60 times/minute. The protocol: A tap density of a powder of the compound A is preferably in the range of about 0.1 to about 0.4 g/cm^3, and more preferably in the range of about 0.1 to about 0.3 g/cm^3. A tap density can be measured by known method. It includes, for example, the method that about 3 g sample is precisely weighed, it is put into dried 50 mL graduated cylinder (scale: by 0.1 mL) without consolidation, the graduated cylinder is set on tapping machine for tap density, then it is tapped for 3 minutes at 60 times/minute, final tap density is found, and value that the weight (g) of particulate is divided by final tap density (cm^3) of particulate is assumed tap density (g/cm^3), and method described in the following Examples and so on.
About 3 g of the powder of compound A is precisely weighed, it is put into dried 50 mL graduated cylinder (scale: by 0.1 mL) without consolidation, the graduated cylinder is set on tapping machine for tap density, then it is tapped for 3 minutes at 60 times/minute, final tap density is found. The value that the weight (g) of particulate is divided by final bulk density (cm^3) of particulate is assumed tap density (g/cm^3). As a result, the tap density of the powder of compound A prepared in Adjustment Example 4(3) was 0.28 g/cm^3 (non-crushing composition) and 0.13 g/cm^3 (crushing composition). The tap density of tie powder of compound A prepared in Adjustment Example 4(4) was 0.23 g/cm^3 (non-crushing composition) and 0.16 g/cm^3 (crushing composition).[

A short description of data set [2]: Measurement of bulk density. As for the experimental part:
A bulk density of a powder of the compound A is preferably in the range of about 0.05 to about 0.3 g/cm^3, and more preferably in the range of about 0.05 to about 0.2 g/cm^3. A bulk density can be measured by known method. It includes, for example, the method that about 3 g sample is precisely weighed, it is put into dried 50 mL graduated cylinder (scale: by 0.1 mL) without consolidation, it reads to minimum unit of scale and value that the weight (g) of particulate is divided by the volume (cm^3) of particulate is assumed bulk density (g/cm^3), and method described in the following Examples and so on.
About 3 g of compound A is precisely weighed, it is put into dried 50 mL graduated cylinder (scale: by 0.1 mL) without consolidation, it reads to minimum unit of scale. The value that the weight (g) of particulate is divided by the volume (cm^3) of particulate is assumed bulk density (g/cm^3). As a result, the bulk density of the powder of compound A prepared in Adjustment Example 4(3) was 0.18 g/cm^3 (non-crushing composition) and […] (crushing composition). The bulk density of compound A prepared in Adjustment Example 4(4) was 0.18 g/cm^3 (non-crushing composition) and 0.08 g/cm^3 (crushing composition).

The nature of data set [3]: Specific surface area of the powder, multipoint BET method. The protocol: A specific surface area of a powder of the compound A obtained by the above-described methods and the following Examples can be measured by known method, for example, multipoint BET method.
A specific surface area of the compound A was adjusted to give the crystalline powders with different specific surface area by the following method. As well, the measurement of specific surface area was performed by multipoint BET method.

The nature of data set [4]: Accelerated test (storage stability: purity by HPLC, degree of moisture by Karl Fisher). The following applies: for Degree of moisture (%) / Purity (%): crushing composition. The protocol: 1 g of the powder of compound A was poured into the two-lay plastic bag and closed firmly with banding band. This was poured into miniature fiber dram and then this was preserved in the stability tester under the condition for 6 months, at 40° C., at 75% relative humidity. And then, the purity (quantitative value) and the degree of moisture (%) of the powder of compound A were measured. The measurement of the degree of moisture was performed by known method: the moisture vaporization method/Karl Fisher electrometrical titration method. The measurement of purity was performed by high performance liquid chromatography (HPLC).
About 0.04 mg/mL N,N-dimethylformamide/acetontirile (3/7) solution of reference material and measurement sample of compound A was prepared. In this case, the concentration of the solutions was precisely found. These solutions was set under the below test condition and the purity of measurement sample was calculated from the obtained area value of the peak.
• The detector: ultraviolet absorptiometer (measurement wavelength: 278 nm), • The column: YMC-Pack ODS-A-302 (inside diameter 4.6 mm, length 15 cm), • The mobile phase: acetonitrile/5 mmol/L sodium acetate buffer (It was prepared to pH 4.5 using acetate.)/2-propanol mixture (5/4/1), • The flow: The retention time of the compound A was prepared to be about 12 minutes (about 1.0 mL/min), • The column temperature: the constant temperature in the vicinity of 40° C. • The injection volume: 20 μL.

[5] abbreviates: crushing composition (jet mill crushed).
Where [6] appears, read: 6 months at 40°C, 75% relative humidity.
[7] abbreviates: over 6 months at 40°C, 75% relative humidity.

Each structure is given as a SMILES string.

With `Cc1ccc(-c2nc(CCOc3cccc4c3CCC=C4CCC(=O)O)c(C)o2)cc1` [Adjustment Example 4(3), 3-(5-{2-[5-methyl-2-(4-methylphenyl)-1,3-oxazol-4-yl]ethoxy}-3,4-dihydronaphthalen-1-yl)propanoic acid], the tap density turned out to be 0.13 g/mL in data set [1] (crushing composition) and 0.28 g/mL in data set [1] (non-crushing composition). Moreover, the bulk density in data set [2] (crushing composition) was determined as 0.8 g/mL; in data set [2] (non-crushing composition), 0.18 g/mL. In addition, the specific surface area in data set [3] (setting [5]) is given as 12.7 m^2/g; in data set [3] (non-crushing composition), 11.0 m^2/g.

Turning to `Cc1ccc(-c2nc(CCOc3cccc4c3CCC=C4CCC(=O)O)c(C)o2)cc1` [Adjustment Example 4(4), 3-(5-{2-[5-methyl-2-(4-methylphenyl)-1,3-oxazol-4-yl]ethoxy}-3,4-dihydronaphthalen-1-yl)propanoic acid], the tap density in data set [1] (crushing composition) was 0.16 g/mL; in data set [1] (non-crushing composition), 0.23 g/mL. Further, the bulk density is 0.08 g/mL in data set [2] (crushing composition) and 0.18 g/mL in data set [2] (non-crushing composition). Besides, the figures for the specific surface area in data set [3] (setting [5]) and in data set [3] (non-crushing composition) were 13.4 m^2/g and 11.2 m^2/g, respectively. The “Degree of moisture (%)” value in data set [4] (0 month) and in data set [4] (setting [6]) was 0.1% throughout. The “Purity (%)” value in data set [4] (0 month) worked out at 98.5%; in data set [4] (setting [6]), 98.2%. For the same compound, the long-term storage stability entry in data set [4] (setting [6]) is given as “stable in long-term storage”. Besides, the “change (increase) of degree of moisture” value in data set [4] (setting [7]) is “no change”. In data set [4] (setting [7]), this compound registered a decrease of purity of 0.3%.
